# Laboratory results as given in ChEMBL document CHEMBL1142850, “Hepatitis C virus NS3-4A serine protease inhibitors: use of a P2-P1 cyclopropyl alanine combination for improved potency” (Bioorg Med Chem Lett, 2005).
# Numbered stars: 1 amine (or outer) side, 2 acyl side, 3 side chain; on linkers, the order of the positions; unused ones are H or OH. Square brackets hold non-standard residues; d marks the D form. Peptide text beside a SMILES is read from it. * marks the point of attachment. Isobutyloxycarbonyl = CC(C)COC(=O)*; Ala(cPr) = N[C@@H](CC1CC1)C(=O)O; X1 = CCCC(N[*:1])C(=O)C(=O)[*:2]; Ahp(2) = CCCCC[C@H](N)C(=O)O; Cba = N[C@@H](CC1CCC1)C(=O)O; Chg = N[C@H](C(=O)O)C1CCCCC1; Phg = N[C@H](C(=O)O)c1ccccc1; hLeu = CC(C)CC[C@H](N)C(=O)O
# Target: NS3 (Hepatitis C virus, UniProt A3EZJ3)
# Sequence (A3EZJ3 whole entry): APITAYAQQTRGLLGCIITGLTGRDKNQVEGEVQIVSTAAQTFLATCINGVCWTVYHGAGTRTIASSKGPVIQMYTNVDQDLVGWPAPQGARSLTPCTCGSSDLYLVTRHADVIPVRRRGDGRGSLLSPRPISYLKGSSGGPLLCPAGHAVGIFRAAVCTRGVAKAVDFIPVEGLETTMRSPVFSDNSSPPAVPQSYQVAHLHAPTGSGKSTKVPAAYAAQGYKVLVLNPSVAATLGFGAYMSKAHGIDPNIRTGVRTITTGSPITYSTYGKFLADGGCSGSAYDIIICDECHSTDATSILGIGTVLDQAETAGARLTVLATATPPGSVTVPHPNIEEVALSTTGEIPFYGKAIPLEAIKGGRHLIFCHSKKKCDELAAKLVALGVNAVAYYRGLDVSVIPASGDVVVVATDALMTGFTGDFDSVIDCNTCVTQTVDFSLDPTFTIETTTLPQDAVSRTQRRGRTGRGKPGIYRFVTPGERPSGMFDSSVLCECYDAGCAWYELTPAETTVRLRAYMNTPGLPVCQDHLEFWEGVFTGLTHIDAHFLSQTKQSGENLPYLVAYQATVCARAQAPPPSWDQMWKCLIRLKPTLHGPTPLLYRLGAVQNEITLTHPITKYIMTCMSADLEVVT
# Assay: Inhibitory activity against HCV NS3 serine protease 1
# Parameters: species or system Hepacivirus hominis
row,SMILES,Ki [nM]
1,CCCC(NC(=O)[C@H](CC1SCCS1)NC(=O)[C@@H](NC(=O)OCC(C)C)C1CCCCC1)C(=O)C(=O)NCC(=O)N[C@H](C(=O)O)c1ccccc1 (some centres undefined),90
2,CCCC(NC(=O)[C@H](CC1SCc2ccccc2CS1)NC(=O)[C@@H](NC(=O)OCC(C)C)C1CCCCC1)C(=O)C(=O)NCC(=O)N[C@H](C(=O)O)c1ccccc1 (some centres undefined),2300
3,CCCC(NC(=O)[C@H](CC1SCCCS1)NC(=O)[C@@H](NC(=O)OCC(C)C)C1CCCCC1)C(=O)C(=O)NCC(=O)N[C@H](C(=O)O)c1ccccc1 (some centres undefined),250
4,CCCC(NC(=O)[C@H](CC1CC1)NC(=O)[C@@H](NC(=O)OCC(C)C)C1CCCCC1)C(=O)C(=O)NCC(=O)N[C@H](C(=O)O)c1ccccc1 (some centres undefined) (Isobutyloxycarbonyl-[Chg][Ala(cPr)][X1]G[Phg]-OH),50
5,CCCCC[C@H](NC(=O)[C@@H](NC(=O)OCC(C)C)C1CCCCC1)C(=O)NC(CCC)C(=O)C(=O)NCC(=O)N[C@H](C(=O)O)c1ccccc1 (some centres undefined) (Isobutyloxycarbonyl-[Chg][Ahp(2)][X1]G[Phg]-OH),300
6,CCCC(NC(=O)[C@H](CCC(C)C)NC(=O)[C@@H](NC(=O)OCC(C)C)C1CCCCC1)C(=O)C(=O)NCC(=O)N[C@H](C(=O)O)c1ccccc1 (some centres undefined) (Isobutyloxycarbonyl-[Chg][hLeu][X1]G[Phg]-OH),310
7,CCCC(NC(=O)[C@H](CC1OCCCO1)NC(=O)[C@@H](NC(=O)OCC(C)C)C1CCCCC1)C(=O)C(=O)NCC(=O)N[C@H](C(=O)O)c1ccccc1 (some centres undefined),430
8,CCCC(NC(=O)[C@H](CC1CCC1)NC(=O)[C@@H](NC(=O)OCC(C)C)C1CCCCC1)C(=O)C(=O)NCC(=O)N[C@H](C(=O)O)c1ccccc1 (some centres undefined) (Isobutyloxycarbonyl-[Chg][Cba][X1]G[Phg]-OH),140
9,CCCC(NC(=O)[C@H](CC1OCCO1)NC(=O)[C@@H](NC(=O)OCC(C)C)C1CCCCC1)C(=O)C(=O)NCC(=O)N[C@H](C(=O)O)c1ccccc1 (some centres undefined),300
